According to patent publication US20090247420A1, “METHOD FOR ENCODING AND SCREENING COMBINATORIAL LIBRARIES” (priority 2005, published 2009):

Tests used:
[1] = biological target: T1, ImmunoPure avidin (Pierce) outfitted with xanthone ET-sensitizer (Gallus gallus, UniProt P02701); experiment: Photolytic tag-release binding screen of the tag-encoded model mini-library with avidin-xanthone conjugate in DPC micelles, GCMS detection of released dithiane tags; conditions: for dithiane tags encoding the library member detected in the GCMS chromatogram after the photolytic assay: dithiane-aldehyde adduct tags, 0.7 mM each tagged library member, 23 μM protein, 155 mM DPC, incubated 1 hour, irradiated 4 hours, 335 nm long pass filter, hexane extract
T1 construct: purchased Pierce
Experimental: The receptor, ImmunoPure® avidin (Pierce), was outfitted with xanthone as an ET-sensitizer. The N-hydroxysuccinimide ester of 11-(xanthone-2-carboxamido)undecanoic acid was coupled to avidin in a 20 mM sodium phosphate buffer according to a described procedure (Wilchek, Methods Enzymol), with subsequent purification on a Sephadex G-25 column. […] Tethering the xanthone-based sensitizer to avidin is no different from outfitting a receptor with a fluorophore for the conventional on-the-bead fluorescence-guided assays.
The screening volume was compartmentalized with micellar detergent, dodecyl phosphocholine (DPC), preventing indiscriminant collisional quenching of avidin-tethered xanthone by unbound molecules and thus limiting the ET sensitization exclusively to the bound host-guest complex. Besides the fact that amphiphiles displaying phosphocholine are common in biological settings, utilization of DPC micelles offers a number of additional benefits: (i) it ensures that the screening is always compatible with aqueous media, regardless of aqueous solubility of the tested libraries; (ii) it allows the design of the tagging system to be centered around readily available hydrophobic alkyl dithianes, which can be selectively extracted after irradiation with hexane or other non-polar solvents for unobstructed GCMS analysis; (iii) it spatially segregates the photofragmentation chemistry from molecular recognition, eliminating potential interference between them; (iv) it restricts the photochemistry to the micelle interior improving quantum efficiency of fragmentation, as it is known to increase in the non-polar environment; and, finally, (v) the micelle-assisted design offers an option of solubilizing certain target proteins, which are not water soluble. While not an issue with avidin, this functionality may be important in assaying insoluble membrane proteins, as recognized in the art.
A typical screening procedure involved solubilization of the mini-library, approximately 0.5 mg per tagged compound, in a 0.6 mL aqueous solution containing 60 mg of DPC. To this clear micellar solution 0.5 mL of avidin-xanthone conjugate was added, so the final concentrations were 0.7 mM of each library member carrying one tag (6.3 mM total), 23 μM protein and 155 mM DPC. The micelle-embedded molecules had apparent translational diffusion coefficients of 7×10^−7 cm^2s^−1, as measured with spin-echo pulse field gradient (PFG) ^1H NMR. […] Then the mixture was extracted with 0.5 mL of hexane, concentrated to 100 μL and analyzed by GCMS.
The generality of this approach is not limited to the tagging assemblies based on dithiane-aldehyde adducts. […] None of the other six dithianes were detected in the hexane extract after irradiation. […]

[2] = Benzophenone-sensitized photofragmentation of triazole 22 and its photostability without sensitizer; assay type: physicochemical
Experimental: To this end 3a was coupled with propargyl amine, providing the acetylenic tagging component S20 for the azide-acetylene click pair. Another readily available tag series was prepared from commercially available acetylenic benzaldehyde as shown in Scheme 12. The Staudinger ligation produces the benzamide linkage, found in compounds 4, 6 and 10, for example. Acetylene-azide click chemistry yields triazoles. […] Triazole 22 was unchanged after prolonged irradiation in the absence of the ET-sensitizer, showing no self-cleavage at wavelengths above 330 nm. This is a critically important finding because premature self-cleavage is detrimental to screening, as it produces false positives.

T1 sequence (P02701 25-152): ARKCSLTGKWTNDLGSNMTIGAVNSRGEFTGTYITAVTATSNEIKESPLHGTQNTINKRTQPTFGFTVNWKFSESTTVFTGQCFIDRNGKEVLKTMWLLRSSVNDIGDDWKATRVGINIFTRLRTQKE

| SMILES | dithiane tags encoding the library member detected in the GCMS chromatogram after the photolytic assay [1] | dithianes encoding the library member detected in the GCMS trace of the hexane extract after irradiation ([1]; mini-library tagged with nine thio ortho esters (19), three tags per member, DPC micellar solution, avidin-xanthone conjugate) | stability to irradiation (self-cleavage) ([2]; prolonged irradiation in the absence of the ET-sensitizer, wavelengths above 330 nm) | quantum efficiency of methyl dithiane release ([2]; upon benzophenone sensitization, compared with the parent (unsubstituted) benzaldehyde adduct) |
| --- | --- | --- | --- | --- |
| NCCCCCCCCCCC(=O)O [aminoundecanoic acid, 11-aminoundecanoic acid] | not discernible at all |  |  |  |
| O=C(O)CCCC[C@@H]1SC[C@@H]2NC(=O)N[C@@H]21 [biotin] | detected | showed only the dithianes encoding biotin |  |  |
| COC(=O)CCCCCCCCCn1cc(-c2ccc(C(O)C3(C)SCCCS3)cc2)nn1 (stereo not drawn) [compound 22] |  |  | unchanged | very similar to the parent (unsubstituted) benzaldehyde adduct |
| N[C@H]1C(O)O[C@H](CO)[C@@H](O)[C@@H]1O (stereo partly drawn) [glucosamine] | not discernible at all |  |  |  |
